From patent US8735384B2, “Amino heteroaryl compounds as beta-secretase modulators and methods of use” (Amgen Inc., priority 2010, dated 2014)
Like-named read-outs stand apart in the source and are kept apart here.

How the values were obtained:
BACE1 = BACE1 (Homo sapiens, UniProt P56817); assay: In vitro enzymatic BACE FRET assay; format: biochemical; details: beta secretase enzyme 0.2 nM, FRET substrate 50 nM, pH 4.2; read-out: BACE1 FRET assay (IC50 class)
Description: In Vitro Enzymatic BACE FRET (Fluorescence Resonance Energy Transfer) Assay (Enzyme Assay Data in Table 1)
The assay buffer used in this screen is 0.05 M acetate, pH 4.2, 10% DMSO final, 100 uM genapol (which is a nonionic detergent, below its Critical Micelle Concentration). The beta secretase enzyme (0.2 nM) is pre-incubated for one hour with inhibitors, typically in about 1 uL of DMSO according to a serial dilution, are added thereto. The assay is effectively started by the addition of FRET substrate (50 nM) and the combination is incubated for one hour. The FRET assay is terminated with by addition of Tris buffer, which raises the pH to neutrality, and the fluorescence is determined. The FRET substrate is a peptide with commercially available fluorophore and quencher, on opposite sides of the BACE cleavage site. Proteolytic cleavage of the FRET substrate releases quenching of fluorescence (excitation […] and […]).
Of the compounds tested, the in-vitro BACE FRET enzyme data for each of Examples 1-220, where available at the time of filing this application, is provided in Table 1.

[1] = test system: Aβ40 in conditioned medium of cells stably expressing Amyloid Precursor Protein (APP); assay: In vitro BACE cell-based assay (HEK cell assay), Aβ40 sandwich ELISA; details: inhibition of Aβ40, 24 h incubation, read-out: HEK cell assay (IC50 class)
Description: In Vitro BACE Cell-Based Assay:
The cell-based assay measures inhibition or reduction of Aβ40 in conditioned medium of test compound treated cells expressing amyloid precursor protein.
Cells stably expressing Amyloid Precursor Protein (APP) were plated at a density of 40K cells/well in 96 well plates (Costar). The cells were cultivated for 24 hours at 37° C. and 5% CO2 in DMEM supplemented with 10% FBS. The test compounds were then added to cells in 10-point dose response concentrations with the starting concentration being either 100 μM or 10 μM. The compounds were diluted from stock solutions in DMSO and the final DMSO concentration of the test compounds on cells was 0.1%. After 24 h of incubation with the test compounds the supernatant conditioned media was collected and the Aβ 40 levels were determined using a sandwich ELISA. The IC50 of the compound was calculated from the percent of control or percent inhibition of Aβ 40 as a function of the concentration of the test compound.
The sandwich ELISA to detect Aβ 40 was performed in 96 well microtiter plates, which were pre-treated with goat anti-rabbit IgG (Pierce). The capture and detecting antibody pair that were used to detect Aβ 40 from cell supernatants were affinity purified pAb40 (Biosource) and biotinylated 6E10 (Signet Labs Inc.), respectively. The optimal concentration for the pAb40 antibody was 3 μg/ml in Superblock/TBS (Pierce) that was supplemented with 0.05% Tween 20 (Sigma). Optimal concentration for the detection antibody 6E10-biotinylated was 0.5 μg/ml in Superblock/TBS (Pierce) that had been supplemented with 2% normal goat serum and 2% normal mouse serum.
Cellular supernatants were incubated with the capture antibody for 3 h at 4° C., followed by 3 wash steps in TBS-tween (0.05%). The detecting antibody incubation was for 2 h at 4° C., again followed by the wash steps as described previously. The final readout of the ELISA is Time-Resolved Fluorescence (counts per minute) using Delfia reagents Streptavidin-Europium and Enhancement solutions (Perkin Elmer) and the Victor 2 multilabel counter (Perkin Elmer).

Sequence of BACE1 (P56817 46-501, species assumed): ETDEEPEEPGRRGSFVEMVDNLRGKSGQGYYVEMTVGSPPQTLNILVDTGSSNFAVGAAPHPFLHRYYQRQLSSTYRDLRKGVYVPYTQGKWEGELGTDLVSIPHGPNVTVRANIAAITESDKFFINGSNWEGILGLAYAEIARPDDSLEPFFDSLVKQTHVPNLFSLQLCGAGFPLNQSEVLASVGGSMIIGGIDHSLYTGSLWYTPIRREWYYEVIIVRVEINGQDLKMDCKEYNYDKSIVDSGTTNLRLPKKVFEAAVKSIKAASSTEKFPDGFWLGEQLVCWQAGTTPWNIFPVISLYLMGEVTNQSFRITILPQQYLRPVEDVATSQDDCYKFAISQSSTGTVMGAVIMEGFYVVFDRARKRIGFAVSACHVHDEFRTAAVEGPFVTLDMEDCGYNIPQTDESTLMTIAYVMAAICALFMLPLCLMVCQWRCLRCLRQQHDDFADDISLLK

| IC50 (BACE1) [nM] | IC50 ([1]; Homo sapiens, HEK293, 24 h) [nM] | IC50 [1] [nM] | Structure (SMILES) |
| --- | --- | --- | --- |
| < 100 | < 100 | – | Cc1ccccc1C(N)c1cccc(C)c1-c1ccc2nc(N)c(N3CCOCC3)cc2c1 (centres unmarked) [Example 193, 6-(2-(amino(o-tolyl)methyl)-6-methylphenyl)-3-morpholinoquinolin-2-amine] |
| 100 to 500 | 1010 to 5000 | – | Cc1cccc(C(=O)c2nccs2)c1-c1ccc2nc(N)c(N3CCOCC3)cc2c1 [Example 158, (2-(2-amino-3-morpholinoquinolin-6-yl)-3-methylphenyl)(thiazol-2-yl)methanone] |
| < 100 | 1010 to 5000 | – | Cc1cccc(Cc2ccccc2)c1-c1ccc2nc(N)c(N3CCOCC3)cc2c1 [Example 18, 6-(2-benzyl-6-methylphenyl)-3-morpholinoquinolin-2-amine] |
| < 100 | 501 to 1000 | – | Cc1cccc(C(=O)N2C(C)C=CC2C)c1-c1ccc2nc(N)c(N3CCOCC3)cc2c1 (centres unmarked) [Example 125, (2-(2-amino-3-morpholinoquinolin-6-yl)-3-methylphenyl)(2,5-dimethyl-2,5-dihydro-1H-pyrrol-1-yl)methanone] |
| < 100 | 501 to 1000 | – | Cc1ccccc1C(=O)c1cccc(C)c1-c1ccc2nc(N)c(N3CCOCC3)cc2c1 [Example 3, (2-(2-amino-3-morpholinoquinolin-6-yl)-3-methylphenyl)(o-tolyl)methanone] |
| 100 to 500 | 1010 to 5000 | – | Cc1cccc(C(=O)N2CCCC2)c1-c1ccc2nc(N)c(N3CCCC3)cc2c1 [Example 60, (2-(2-amino-3-(pyrrolidin-1-yl)quinolin-6-yl)-3-methylphenyl)(pyrrolidin-1-yl)methanone] |
| 1010 to 5000 | > 5000 | – | Nc1nc2ccc(-c3ccccc3C(O)C3CCOCC3)cc2cc1N1CCOCC1 (centres unmarked) [Example 12, (2-(2-amino-3-morpholinoquinolin-6-yl)phenyl)(tetrahydro-2H-pyran-4-yl)methanol] |
| < 100 | 501 to 1000 | – | Cc1cccc(C(=O)N2CCCCC2)c1-c1ccc2nc(N)c(N3CCOCC3)cc2c1 [Example 58, (2-(2-amino-3-morpholinoquinolin-6-yl)-3-methylphenyl)(piperidin-1-yl)methanone] |
| < 100 | 100 to 500 | – | Cc1cccc(C(=O)N2CCCC2C(C)C)c1-c1ccc2nc(N)c(N3CCOCC3)cc2c1 (centres unmarked) [Example 66, (2-(2-amino-3-morpholinoquinolin-6-yl)-3-methylphenyl)(2-isopropylpyrrolidin-1-yl)methanone] |
| 1010 to 5000 | 100 to 500 | – | Cc1cccc(C2NCCc3ccccc32)c1-c1ccc2nc(N)c(N3CCOCC3)cc2c1 (centres unmarked) [Example 10, 6-(2-methyl-6-(1,2,3,4-tetrahydroisoquinolin-1-yl)phenyl)-3-morpholinoquinolin-2-amine] |
| < 100 | 1010 to 5000 | – | Cc1cccc(C(=O)N(C)[C@H](C)c2ccccc2)c1-c1ccc2nc(N)c(N3CCOCC3)cc2c1 [Example 133, (R)-2-(2-amino-3-morpholinoquinolin-6-yl)-N,3-dimethyl-N-(1-phenylethyl)benzamide] |
| < 100 | 1010 to 5000 | – | Nc1nc2ccc(-c3ccccc3C(=O)CC3CCCC3)cc2cc1N1CCOCC1 [Example 156, 1-(2-(2-amino-3-morpholinoquinolin-6-yl)phenyl)-2-cyclopentylethanone] |
| < 100 | 1010 to 5000 | – | CCC1CCCCN1C(=O)c1cccc(C)c1-c1ccc2nc(N)c(N3CCOCC3)cc2c1 (centres unmarked) [Example 81, (2-(2-amino-3-morpholinoquinolin-6-yl)-3-methylphenyl)(2-ethylpiperidin-1-yl)methanone] |
| < 100 | < 100 | – | Cc1cccc(C(N)c2ccccc2)c1-c1ccc2nc(N)c(N3CCOCC3)cc2c1 (centres unmarked) [Example 17, 6-(2-(amino(phenyl)methyl)-6-methylphenyl)-3-morpholinoquinolin-2-amine] |
| < 100 | 100 to 500 | – | Cc1cc(F)cc(C(=O)N2CCCC2)c1-c1ccc2nc(N)c(N3CCOCC3)cc2c1 [Example 27, (2-(2-amino-3-morpholinoquinolin-6-yl)-5-fluoro-3-methylphenyl)(pyrrolidin-1-yl)methanone] |
| < 100 | 100 to 500 | – | Cc1cccc(C(=O)N2C[C@H]3CC[C@@H]2C3)c1-c1ccc2nc(N)c(N3CCOCC3)cc2c1 [Example 68, (2-(2-amino-3-morpholinoquinolin-6-yl)-3-methylphenyl)((1R,4S)-2-azabicyclo[2.2.1]heptan-2-yl)methanone] |
| < 100 | 1010 to 5000 | – | CCCCC(=O)c1cccc(C)c1-c1ccc2nc(N)c(N3CCOCC3)cc2c1 [Example 180, 1-(2-(2-amino-3-morpholinoquinolin-6-yl)-3-methylphenyl)pentan-1-one] |
| < 100 | 100 to 500 | – | COc1cccnc1C(=O)c1cccc(C)c1-c1ccc2nc(N)c(N3CCOCC3)cc2c1 [Example 187, (2-(2-amino-3-morpholinoquinolin-6-yl)-3-methylphenyl)(3-methoxypyridin-2-yl)methanone] |
| < 100 | 100 to 500 | – | COc1ccccc1C(=O)c1cccc(C)c1-c1ccc2nc(N)c(N3CCOCC3)cc2c1 [Example 7, (2-(2-amino-3-morpholinoquinolin-6-yl)-3-methylphenyl)(2-methoxyphenyl)methanone] |
| < 100 | – | 100 to 500 | Cc1cccc(/C(=N/O)c2ccccc2)c1-c1ccc2nc(N)c(N3CCOCC3)cc2c1 [Example 190, (E)-(2-(2-amino-3-morpholinoquinolin-6-yl)-3-methylphenyl)(phenyl)methanone oxime] |
| < 100 | 100 to 500 | – | Cc1cccc(C(=O)N2CCC(F)(F)C2)c1-c1ccc2nc(N)c(N3CCOCC3)cc2c1 [Example 98, (2-(2-amino-3-morpholinoquinolin-6-yl)-3-methylphenyl)(3,3-difluoropyrrolidin-1-yl)methanone] |
| < 100 | < 100 | – | Nc1nc2ccc(-c3c(CCC4CCCCC4)cccc3C(=O)N3CCCC3)cc2cc1N1CCOCC1 [Example 168, (2-(2-amino-3-morpholinoquinolin-6-yl)-3-(2-cyclohexylethyl)phenyl)(pyrrolidin-1-yl)methanone] |
| 501 to 1000 | > 5000 | – | CC(C)(C)C#Cc1ccccc1-c1ccc2nc(N)c(N3CCOCC3)cc2c1 [Example 160, 6-(2-(3,3-dimethylbut-1-ynyl)phenyl)-3-morpholinoquinolin-2-amine] |
| 100 to 500 | 1010 to 5000 | – | COCCC1CCN(C(=O)c2cccc(C)c2-c2ccc3nc(N)c(N4CCOCC4)cc3c2)CC1 [Example 75, (2-(2-amino-3-morpholinoquinolin-6-yl)-3-methylphenyl)(4-(2-methoxyethyl)piperidin-1-yl)methanone] |
| < 100 | > 5000 | – | COc1cccc(Cc2cccc(C)c2-c2ccc3nc(N)c(N4CCOCC4)cc3c2)c1 [Example 203, 6-(2-(3-methoxybenzyl)-6-methylphenyl)-3-morpholinoquinolin-2-amine] |
| 1010 to 5000 | > 5000 | – | Nc1nc2ccc(-c3cccc(F)c3C(=O)N3CCCC3)cc2cc1N1CCOCC1 [Example 142, (2-(2-amino-3-morpholinoquinolin-6-yl)-6-fluorophenyl)(pyrrolidin-1-yl)methanone] |
| < 100 | > 5000 | – | Cc1cccc(Oc2ccccc2)c1-c1ccc2nc(N)c(N3CCOCC3)cc2c1 [Example 171, 6-(2-methyl-6-phenoxyphenyl)-3-morpholinoquinolin-2-amine] |
| < 100 | 501 to 1000 | – | Cc1cccc(C(=O)N2CCCC2C(C)(C)C)c1-c1ccc2nc(N)c(N3CCOCC3)cc2c1 (centres unmarked) [Example 64, (2-(2-amino-3-morpholinoquinolin-6-yl)-3-methylphenyl)(2-tert-butylpyrrolidin-1-yl)methanone] |
